Measured values as given in article PMC4850510 (ACS Central Science, 2016).

What was measured:
[1] = target: GABA AT (Rattus norvegicus, UniProt P50554); experiment: GABA transaminase; assay type: biochemical
[2] = tested on: CBS; conditions: read-out: IC50 for CBS; cited from earlier work

Chain of GABA AT (P50554 28-500): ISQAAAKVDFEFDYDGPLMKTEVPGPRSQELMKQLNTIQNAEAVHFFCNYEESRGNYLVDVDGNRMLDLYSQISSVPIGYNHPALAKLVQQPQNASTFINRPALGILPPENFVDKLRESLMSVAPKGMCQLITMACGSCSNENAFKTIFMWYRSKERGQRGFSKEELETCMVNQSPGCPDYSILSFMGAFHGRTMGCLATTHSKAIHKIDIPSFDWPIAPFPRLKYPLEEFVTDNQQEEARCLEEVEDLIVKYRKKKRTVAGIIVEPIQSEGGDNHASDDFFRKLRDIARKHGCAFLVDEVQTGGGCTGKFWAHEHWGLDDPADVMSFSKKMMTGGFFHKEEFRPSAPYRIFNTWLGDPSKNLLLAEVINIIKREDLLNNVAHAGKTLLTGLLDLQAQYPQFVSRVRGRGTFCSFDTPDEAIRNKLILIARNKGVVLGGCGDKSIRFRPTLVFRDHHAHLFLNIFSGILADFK

NOCC(=O)O [AOAA, aminooxyacetic acid]
fold better inhibitor of GABA AT than of CBS ([1]; IC50 GABA AT vs IC50 CBS): 33 fold
IC50 ([1]; read-out: IC50 for GABA AT, rat brain homogenate): ~0.36 µM
IC50 [2]: ~12 µM
